Measurements reported in ChEMBL document CHEMBL2176878, “Synthesis and biological characterization of 3-substituted 1H-indoles as ligands of GluN2B-containing N-methyl-D-aspartate receptors. Part 2” (J Med Chem, 2012).
Values belong to the compound of their own block, whether it stands above or below them.

Experiments:
[1] = target: Glutamate receptor ionotropic, NMDA 2B (Rattus norvegicus) (UniProt Q00960); test: Displacement of [3H]ifenprodil from NMDA receptor GluN2B subunit in Wistar rat cerebral cortex at 10 uM after 120 mins; type: tissue-based
Chain of Glutamate receptor ionotropic, NMDA 2B (Rattus norvegicus) (Q00960 27-1482 limits assumed): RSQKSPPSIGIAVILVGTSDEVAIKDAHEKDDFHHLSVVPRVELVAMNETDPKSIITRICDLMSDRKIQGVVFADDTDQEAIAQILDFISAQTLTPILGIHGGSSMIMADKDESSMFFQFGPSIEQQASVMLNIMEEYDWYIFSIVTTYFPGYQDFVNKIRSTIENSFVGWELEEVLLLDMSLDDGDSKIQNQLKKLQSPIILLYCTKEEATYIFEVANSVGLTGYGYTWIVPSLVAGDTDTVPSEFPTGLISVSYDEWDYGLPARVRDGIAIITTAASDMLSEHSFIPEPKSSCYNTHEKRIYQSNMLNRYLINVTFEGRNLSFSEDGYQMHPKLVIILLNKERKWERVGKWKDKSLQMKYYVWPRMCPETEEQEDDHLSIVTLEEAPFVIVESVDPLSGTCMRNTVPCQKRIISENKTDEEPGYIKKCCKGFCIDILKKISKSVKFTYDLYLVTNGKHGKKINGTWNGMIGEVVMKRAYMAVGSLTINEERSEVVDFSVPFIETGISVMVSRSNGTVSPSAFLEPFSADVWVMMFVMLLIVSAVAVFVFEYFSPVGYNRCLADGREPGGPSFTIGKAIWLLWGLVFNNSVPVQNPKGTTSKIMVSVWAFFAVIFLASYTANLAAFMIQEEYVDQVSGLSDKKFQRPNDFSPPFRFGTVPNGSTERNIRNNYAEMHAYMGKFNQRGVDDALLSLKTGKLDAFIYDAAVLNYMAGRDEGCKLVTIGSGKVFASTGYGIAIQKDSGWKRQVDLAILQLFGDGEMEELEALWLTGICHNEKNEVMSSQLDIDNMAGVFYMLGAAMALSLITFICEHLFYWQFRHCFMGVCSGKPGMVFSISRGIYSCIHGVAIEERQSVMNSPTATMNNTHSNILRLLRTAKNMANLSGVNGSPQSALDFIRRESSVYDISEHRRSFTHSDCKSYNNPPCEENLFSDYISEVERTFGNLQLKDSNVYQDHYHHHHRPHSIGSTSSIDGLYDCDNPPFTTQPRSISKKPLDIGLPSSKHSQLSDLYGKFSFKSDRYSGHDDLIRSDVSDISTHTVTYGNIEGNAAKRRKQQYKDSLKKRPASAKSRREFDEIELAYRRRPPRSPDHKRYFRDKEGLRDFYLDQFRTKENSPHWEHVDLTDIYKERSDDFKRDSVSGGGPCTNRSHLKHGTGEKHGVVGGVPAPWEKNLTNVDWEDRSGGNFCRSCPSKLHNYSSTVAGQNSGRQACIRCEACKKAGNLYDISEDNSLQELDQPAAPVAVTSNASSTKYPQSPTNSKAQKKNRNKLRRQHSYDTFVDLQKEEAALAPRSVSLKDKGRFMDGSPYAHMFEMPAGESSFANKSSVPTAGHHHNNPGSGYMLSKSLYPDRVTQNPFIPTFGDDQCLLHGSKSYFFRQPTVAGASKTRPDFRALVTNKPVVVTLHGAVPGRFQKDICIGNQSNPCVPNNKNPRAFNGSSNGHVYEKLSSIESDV

[2] = target: Glutamate receptor ionotropic, NMDA 2B (Rattus norvegicus, UniProt Q00960); test: Displacement of [3H]ifenprodil from NMDA receptor GluN2B subunit in Wistar rat cerebral cortex after 120 mins; type: tissue-based
Chain of Glutamate receptor ionotropic, NMDA 2B (Q00960 whole entry): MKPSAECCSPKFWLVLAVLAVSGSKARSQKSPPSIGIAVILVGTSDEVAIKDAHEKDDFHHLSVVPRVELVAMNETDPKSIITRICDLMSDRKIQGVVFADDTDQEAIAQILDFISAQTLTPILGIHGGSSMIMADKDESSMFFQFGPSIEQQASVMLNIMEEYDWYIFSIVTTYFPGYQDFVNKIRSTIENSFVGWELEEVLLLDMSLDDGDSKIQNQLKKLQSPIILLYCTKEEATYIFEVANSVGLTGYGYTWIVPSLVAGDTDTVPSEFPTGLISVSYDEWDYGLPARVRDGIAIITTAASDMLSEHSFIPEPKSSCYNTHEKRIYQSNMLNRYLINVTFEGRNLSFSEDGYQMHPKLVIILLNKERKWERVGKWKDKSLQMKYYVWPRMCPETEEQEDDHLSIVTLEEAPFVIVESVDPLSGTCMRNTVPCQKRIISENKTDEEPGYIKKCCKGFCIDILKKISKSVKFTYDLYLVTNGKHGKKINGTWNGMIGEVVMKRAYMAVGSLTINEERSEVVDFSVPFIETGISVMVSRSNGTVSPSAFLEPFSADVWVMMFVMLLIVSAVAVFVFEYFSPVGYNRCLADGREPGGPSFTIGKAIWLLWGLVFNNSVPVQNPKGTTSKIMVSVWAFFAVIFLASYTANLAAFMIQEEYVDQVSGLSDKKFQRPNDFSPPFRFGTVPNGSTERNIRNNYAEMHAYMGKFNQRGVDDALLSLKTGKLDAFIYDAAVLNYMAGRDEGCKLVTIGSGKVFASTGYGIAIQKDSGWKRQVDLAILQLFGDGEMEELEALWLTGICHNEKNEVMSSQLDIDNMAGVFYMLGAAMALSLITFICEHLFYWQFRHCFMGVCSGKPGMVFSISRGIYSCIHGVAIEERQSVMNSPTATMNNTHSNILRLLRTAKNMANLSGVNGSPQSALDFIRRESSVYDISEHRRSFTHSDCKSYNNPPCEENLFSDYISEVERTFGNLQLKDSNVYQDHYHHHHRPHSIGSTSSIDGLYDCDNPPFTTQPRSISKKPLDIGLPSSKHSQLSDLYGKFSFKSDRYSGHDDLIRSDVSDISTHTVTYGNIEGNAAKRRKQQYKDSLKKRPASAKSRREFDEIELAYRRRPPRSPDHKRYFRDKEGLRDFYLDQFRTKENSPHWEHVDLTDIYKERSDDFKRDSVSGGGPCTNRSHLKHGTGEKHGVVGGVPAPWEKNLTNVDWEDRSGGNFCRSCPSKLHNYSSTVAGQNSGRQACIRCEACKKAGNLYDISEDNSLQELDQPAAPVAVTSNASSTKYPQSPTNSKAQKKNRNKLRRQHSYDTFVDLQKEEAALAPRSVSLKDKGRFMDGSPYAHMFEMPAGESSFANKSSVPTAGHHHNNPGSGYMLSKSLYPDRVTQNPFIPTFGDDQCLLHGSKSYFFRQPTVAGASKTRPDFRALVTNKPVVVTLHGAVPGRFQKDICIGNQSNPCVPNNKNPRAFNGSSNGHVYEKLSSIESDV

[3] = target: Glutamate receptor ionotropic, NMDA 2B (Mus musculus) (UniProt Q01097); test: (§1) Antagonist activity at NMDA receptor GluN2B subunit in FVB mouse CA1 pyramidal neurons assessed as decrease in EPSC amplitude at holding potential of -60 mV at 50 uM measured at 5 mins by patch clamp electrophysiological assay in presence of Mg2+ free ACSF containing CNQX, glycine, bicuculline relative to control; type: functional, cell-based; design: scale not given: the % may be the effect or the level left; conditions: Pyramidal neuron
Chain of Glutamate receptor ionotropic, NMDA 2B (Mus musculus) (Q01097 whole entry): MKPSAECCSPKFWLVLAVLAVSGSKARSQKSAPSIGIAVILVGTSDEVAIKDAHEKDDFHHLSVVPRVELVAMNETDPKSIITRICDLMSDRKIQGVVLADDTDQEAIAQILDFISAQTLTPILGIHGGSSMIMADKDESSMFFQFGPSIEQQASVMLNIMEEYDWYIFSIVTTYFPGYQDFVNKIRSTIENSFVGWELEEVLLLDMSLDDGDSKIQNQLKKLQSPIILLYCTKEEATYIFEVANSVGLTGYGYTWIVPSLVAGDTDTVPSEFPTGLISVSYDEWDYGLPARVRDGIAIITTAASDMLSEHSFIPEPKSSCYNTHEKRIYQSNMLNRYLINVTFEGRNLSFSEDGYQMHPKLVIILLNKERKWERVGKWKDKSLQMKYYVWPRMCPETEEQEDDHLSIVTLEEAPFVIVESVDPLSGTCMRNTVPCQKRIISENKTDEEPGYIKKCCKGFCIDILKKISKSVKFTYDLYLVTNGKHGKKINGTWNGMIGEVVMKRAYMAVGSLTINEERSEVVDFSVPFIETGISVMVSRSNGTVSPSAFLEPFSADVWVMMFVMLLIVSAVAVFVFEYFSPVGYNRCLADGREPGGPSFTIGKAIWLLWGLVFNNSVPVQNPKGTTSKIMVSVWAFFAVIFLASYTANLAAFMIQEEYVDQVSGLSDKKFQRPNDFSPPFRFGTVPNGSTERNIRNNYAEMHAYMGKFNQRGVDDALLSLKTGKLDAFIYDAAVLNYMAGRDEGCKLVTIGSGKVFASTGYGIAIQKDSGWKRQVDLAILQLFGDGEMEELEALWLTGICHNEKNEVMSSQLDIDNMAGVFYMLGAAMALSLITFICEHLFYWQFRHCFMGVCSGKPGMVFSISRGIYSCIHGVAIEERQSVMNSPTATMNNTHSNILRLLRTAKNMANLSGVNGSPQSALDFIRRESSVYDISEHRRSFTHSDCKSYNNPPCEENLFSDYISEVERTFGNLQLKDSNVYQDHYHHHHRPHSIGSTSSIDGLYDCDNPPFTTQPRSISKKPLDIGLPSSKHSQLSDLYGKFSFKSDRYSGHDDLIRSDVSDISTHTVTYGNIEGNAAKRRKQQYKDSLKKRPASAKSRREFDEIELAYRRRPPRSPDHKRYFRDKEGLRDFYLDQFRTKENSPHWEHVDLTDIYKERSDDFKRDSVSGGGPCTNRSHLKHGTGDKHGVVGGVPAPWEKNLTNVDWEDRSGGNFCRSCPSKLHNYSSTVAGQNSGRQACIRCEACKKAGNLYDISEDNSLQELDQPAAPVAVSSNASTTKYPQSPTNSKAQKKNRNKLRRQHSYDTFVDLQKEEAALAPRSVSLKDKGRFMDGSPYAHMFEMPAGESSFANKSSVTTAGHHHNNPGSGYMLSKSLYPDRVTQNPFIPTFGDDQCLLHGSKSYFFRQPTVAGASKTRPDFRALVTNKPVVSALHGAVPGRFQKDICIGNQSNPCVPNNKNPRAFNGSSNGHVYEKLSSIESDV

[4] = target: Glutamate NMDA receptor; Grin1/Grin2b (Rattus norvegicus, UniProt P35439+Q00960); test: Inhibition of rat NMDA receptor NR1F/NR2B subunit expressed in Xenopus laevis oocytes after 2 days by two-electrode voltage-clamp electrophysiological assay; type: cell-based, Oocyte
[5] = target: Glutamate receptor ionotropic, NMDA 2B (Mus musculus) (UniProt Q01097); test: as §1, with “6” for “50”; type: functional, cell-based; design: scale not given: the % may be the effect or the level left; conditions: Pyramidal neuron
[6] = Dissociation constant, pKa of the compound; type: physicochemical
[7] = target: Glutamate receptor ionotropic, NMDA 2B (Rattus norvegicus) (UniProt Q00960); test: as §1, with “Wistar rat” for “FVB mouse”, “100 nM” for “50 uM”; type: functional, cell-based; design: scale not given: the % may be the effect or the level left; conditions: Pyramidal neuron
[8] = target: Glutamate receptor ionotropic, NMDA 2B (Mus musculus) (UniProt Q01097); test: as §1, with “100 nM” for “50 uM”; type: functional, cell-based; design: scale not given: the % may be the effect or the level left; conditions: Pyramidal neuron

SMILES: Nc1ccc2c(C(=O)C(=O)N3CCC(Cc4ccccc4)CC3)c[nH]c2c1
- inhibition [1]: 32%

SMILES: Nc1ccc2[nH]cc(C(=O)C(=O)N3CCC(Cc4ccccc4)CC3)c2c1
- inhibition [1]: 40%

SMILES: N[C@H](CCCP(=O)(O)O)C(=O)O
- Activity [3]: 28%

SMILES: CS(=O)(=O)Nc1ccc2[nH]cc(C(=O)C(=O)N3CCC(Cc4ccccc4)CC3)c2c1
- inhibition [1]: 42%

SMILES: C[C@@H](CN1CCC(Cc2ccccc2)CC1)[C@@H](O)c1ccc(O)cc1
- IC50 [4]: 0.017 µM
- Activity [5]: 29%

SMILES: Nc1ccc2[nH]cc(C(=O)CN3CCC(Cc4ccccc4)CC3)c2c1
- IC50 [2]: 1.18 µM

The next lines start with the values.

- IC50 [2]: 2.27 µM
SMILES: Nc1ccc2c(C(=O)CN3CCC(Cc4ccccc4)CC3)c[nH]c2c1

- IC50 [2]: 0.063 µM
SMILES: CS(=O)(=O)Nc1ccc2c(C(=O)C(=O)N3CCC(Cc4ccccc4)CC3)c[nH]c2c1

- pKa [6]: 9.97
- Activity [7]: 50%
- Activity [8]: 23.3%
- IC50 [2]: 0.0089 µM
SMILES: CS(=O)(=O)Nc1ccc2c(C(=O)CN3CCC(Cc4ccccc4)CC3)c[nH]c2c1

- IC50 [2]: 0.32 µM
SMILES: CS(=O)(=O)Nc1ccc2[nH]cc(C(=O)CN3CCC(Cc4ccccc4)CC3)c2c1

- pKa [6]: 9.63
SMILES: O=C(CN1CCC(Cc2ccccc2)CC1)c1c[nH]c2cc(O)ccc12
